Assay results from US10890591B2, “Methods and dose packs for monitoring medication adherence” (Synapse Biosciences, LLC, priority 2016, dated 2021).

How the values were obtained:
[1] = clinical
Text: (§1) All other markers were obtained from commercial sources. Urine and saliva were collected prior to each day's dosing of marker confirming the presence or absence of markers before the experiment started. […] The presence of all 7 markers at day 8 would confirm that all markers were ingested in the previous 7 day one week period.
(§2) Healthy volunteers with no recent exposure to the markers who were not currently taking prescribed medications, OTC medications or vitamins and supplements were chosen. Exposure to the markers more than one month before starting the experiment was allowed and no dietary restrictions were required. Subjects were given a 7 day blister pack with markers sequenced in the order above. Subjects verbally confirmed they understood the urine and saliva collection procedures. Instructions printed on the marker blister pack instructed subjects to collect urine and saliva each morning before they took the daily dose of marker. They were also instructed to take the daily dose of marker close to the same time each day.

[2] = clinical; conditions: human, in vivo
Text: as §1, §2

[3] = Multiple Marker Experiment 2: urine samples, simulated non-adherence (one marker dose skipped per subject), LC-MS/MS; conditions: for Subject B, Urine Results / Subject C, Urine Results: collected before that day's dose; for Subject B, Urine Results / Subject C, Urine Results / concentration at 8 day: other markers dosed once; for concentration at 8 day: Urine Results, Day 8 sample
[4] = human, in vivo, Average of Urine Samples
[5] = human, in vivo, Subject B, Urine Results
[6] = Day 1 sample, collected before that day's dose, Experiment #1, adherent with all markers, each marker dosed once
[7] = Day 2 sample, collected before that day's dose, Experiment #1, adherent with all markers, each marker dosed once
[8] = Day 3 sample, collected before that day's dose, Experiment #1, adherent with all markers, each marker dosed once
[9] = Day 4 sample, collected before that day's dose, Experiment #1, adherent with all markers, each marker dosed once
[10] = Day 5 sample, collected before that day's dose, Experiment #1, adherent with all markers, each marker dosed once
[11] = Day 6 sample, collected before that day's dose, Experiment #1, adherent with all markers, each marker dosed once
[12] = Day 7 sample, collected before that day's dose, Experiment #1, adherent with all markers, each marker dosed once
[13] = Day 8 sample, Experiment #1, adherent with all markers, each marker dosed once
[14] = human, in vivo, Subject A, Urine Results

Cc1cc2nc3c(=O)[nH]c(=O)nc-3n(C[C@H](O)[C@H](O)[C@H](O)CO)c2cc1C [Riboflavin]
Subject C, Urine Results ([1]; human, in vivo, 1 day): 1210 ng/m | Subject D, Urine Results ([1]; human, in vivo, 1 day): 819 ng/m | Subject C, Urine Results ([1]; human, in vivo, 2 day): 4940 ng/m | Subject D, Urine Results ([1]; human, in vivo, 2 day): 1290 ng/m | Subject C, Urine Results ([1]; human, in vivo, 3 day): 3150 ng/m | Subject D, Urine Results ([1]; human, in vivo, 3 day): 5190 ng/m | Subject C, Urine Results ([1]; human, in vivo, 4 day): 3150 ng/m | Subject D, Urine Results ([1]; human, in vivo, 4 day): 4330 ng/m | Subject C, Urine Results ([1]; human, in vivo, 5 day): 1230 ng/m | Subject D, Urine Results ([1]; human, in vivo, 5 day): 1730 ng/m | Subject C, Urine Results ([1]; human, in vivo, 6 day): 1680 ng/m | Subject D, Urine Results ([1]; human, in vivo, 6 day): 2120 ng/m | Subject C, Urine Results ([1]; human, in vivo, 7 day): 4450 ng/m | Subject D, Urine Results ([1]; human, in vivo, 7 day): 3200 ng/m | Subject C, Urine Results ([1]; human, in vivo, 8 day): 9920 ng/m | Subject D, Urine Results ([1]; human, in vivo, 8 day): 3310 ng/m | concentration at 1 day [1, 4]: 2240 ng/mL | concentration at 2 day [1, 4]: 2490 ng/mL | concentration at 3 day [1, 4]: 2960 ng/mL | concentration at 4 day [1, 4]: 5130 ng/mL | concentration at 5 day [1, 4]: 2110 ng/mL | concentration at 6 day [1, 4]: 2270 ng/mL | concentration at 7 day [1, 4]: 3100 ng/mL | concentration at 8 day [1, 4]: 5710 ng/mL | concentration at 3 day [1, 5]: 3040 ng/mL | concentration at 1 day [2]: 85.5 ng/mL | concentration at 2 day [2]: 92 ng/mL | concentration at 3 day [2]: 58.2 ng/mL | concentration at 4 day [2]: 45.5 ng/mL | concentration at 5 day [2]: 37.3 ng/mL | concentration at 6 day [2]: 85.5 ng/mL | concentration at 7 day [2]: 40.8 ng/mL | concentration at 8 day [2]: 43.1 ng/mL

COc1ccc2c(c1)[C@]13CCCC[C@@H]1[C@H](C2)N(C)CC3 [DXM, Dextromethorphan]
Subject A, Urine Results [1, 6]: 0 ng/mL | Subject B, Urine Results [1, 6]: 0 ng/mL | Subject C, Urine Results [1, 6]: 0 ng/m | Subject D, Urine Results [1, 6]: 0 ng/m | Subject A, Urine Results [1, 7]: 0 ng/mL | Subject B, Urine Results [1, 7]: 0 ng/mL | Subject C, Urine Results [1, 7]: 0 ng/m | Subject D, Urine Results [1, 7]: 0 ng/m | Subject A, Urine Results [1, 8]: 0 ng/mL | Subject B, Urine Results [1, 8]: 0 ng/mL | Subject C, Urine Results [1, 8]: 0 ng/m | Subject D, Urine Results [1, 8]: 0 ng/m | Subject A, Urine Results [1, 9]: 146 ng/mL | Subject B, Urine Results [1, 9]: 358 ng/mL | Subject C, Urine Results [1, 9]: 187 ng/m | Subject D, Urine Results [1, 9]: 641 ng/m | Average of Urine Samples ([1]; Day 4 sample, collected before that day's dose, average of subjects A, B, C, D, Experiment 1, each marker dosed once): 333 ng/mL | Subject A, Urine Results [1, 10]: 11.7 ng/mL | Subject B, Urine Results [1, 10]: 31.4 ng/mL | Subject C, Urine Results [1, 10]: 15 ng/m | Subject D, Urine Results [1, 10]: 51.8 ng/m | Average of Urine Samples ([1]; Day 5 sample, collected before that day's dose, average of subjects A, B, C, D, Experiment 1, each marker dosed once): 27.475 ng/mL | Subject A, Urine Results [1, 11]: 3.6 ng/mL | Subject B, Urine Results [1, 11]: 17.8 ng/mL | Subject C, Urine Results [1, 11]: 4.84 ng/m | Subject D, Urine Results [1, 11]: 4.53 ng/m | Average of Urine Samples ([1]; Day 6 sample, collected before that day's dose, average of subjects A, B, C, D, Experiment 1, each marker dosed once): 7.6925 ng/mL | Subject A, Urine Results [1, 12]: 0.987 ng/mL | Subject B, Urine Results [1, 12]: 3.96 ng/mL | Subject C, Urine Results [1, 12]: 2.12 ng/m | Subject D, Urine Results [1, 12]: 2.61 ng/m | Average of Urine Samples ([1]; Day 7 sample, collected before that day's dose, average of subjects A, B, C, D, Experiment 1, each marker dosed once): 2.419 ng/mL | Subject C, Urine Results [1, 13]: 0.787 ng/m | Subject D, Urine Results [1, 13]: 1.26 ng/m | course of urine levels relative to dosing ([1]; Experiment 1, days 1-8): zero before dosing, peaked the day after dosing and slowly decreased over time | concentration at 1 day ([1]; human, in vivo): 0 ng/mL | concentration at 2 day ([1]; human, in vivo): 0 ng/mL | concentration at 3 day ([1]; human, in vivo): 0 ng/mL | concentration at 8 day ([1]; human, in vivo, Average of Urine Samples, Day 8 sample, average of subjects A, B, C, D, Experiment 1, each marker dosed once): 1.49 ng/mL | concentration at 8 day ([1]; human, in vivo, Subject A, Urine Results, Day 8 sample, Experiment #1, adherent with all markers, each marker dosed once): 0.341 ng/mL | concentration at 8 day ([1]; human, in vivo, Subject B, Urine Results, Day 8 sample, Experiment #1, adherent with all markers, each marker dosed once): 3.56 ng/mL | Subject B, Urine Results ([3]; Day 1 sample, Experiment #2, subject B skipped diphenhydramine on day 5): 0 ng/mL | Subject C, Urine Results ([3]; Day 1 sample, Experiment #2, subject C skipped Loperamide on day 2): 0 ng/mL | Subject B, Urine Results ([3]; Day 2 sample, Experiment #2, subject B skipped diphenhydramine on day 5): 0 ng/mL | Subject C, Urine Results ([3]; Day 2 sample, Experiment #2, subject C skipped Loperamide on day 2): 0 ng/mL | Subject B, Urine Results ([3]; Day 3 sample, Experiment #2, subject B skipped diphenhydramine on day 5): 0 ng/mL | Subject C, Urine Results ([3]; Day 3 sample, Experiment #2, subject C skipped Loperamide on day 2): 0 ng/mL | Subject B, Urine Results ([3]; Day 4 sample, Experiment #2, subject B skipped diphenhydramine on day 5): 2640 ng/mL | Subject C, Urine Results ([3]; Day 4 sample, Experiment #2, subject C skipped Loperamide on day 2): 377 ng/mL | Subject B, Urine Results ([3]; Day 5 sample, Experiment #2, subject B skipped diphenhydramine on day 5): 181 ng/mL | Subject C, Urine Results ([3]; Day 5 sample, Experiment #2, subject C skipped Loperamide on day 2): 40 ng/mL | Subject B, Urine Results ([3]; Day 6 sample, Experiment #2, subject B skipped diphenhydramine on day 5): 14.7 ng/mL | Subject C, Urine Results ([3]; Day 6 sample, Experiment #2, subject C skipped Loperamide on day 2): 1.35 ng/mL | Subject B, Urine Results ([3]; Day 7 sample, Experiment #2, subject B skipped diphenhydramine on day 5): 16.6 ng/mL | Subject C, Urine Results ([3]; Day 7 sample, Experiment #2, subject C skipped Loperamide on day 2): 1.11 ng/mL | course of urine levels relative to dosing ([3]; Experiment 2, days 1-8): zero before dosing, peaked the day after dosing and slowly decreased over time | concentration at 1 day ([3]; human, in vivo): 0 ng/mL | concentration at 2 day ([3]; human, in vivo): 0 ng/mL | concentration at 3 day ([3]; human, in vivo): 0 ng/mL | concentration at 8 day ([3]; human, in vivo, Subject B, Experiment #2, subject B skipped diphenhydramine on day 5): 2.63 ng/mL | concentration at 8 day ([3]; human, in vivo, Subject C, Experiment #2, subject C skipped Loperamide on day 2): 0.15 ng/mL | concentration at 1 day [2]: 0 ng/mL | concentration at 2 day [2]: 0 ng/mL | concentration at 3 day [2]: 0 ng/mL | concentration at 4 day [2]: 8.4 ng/mL | concentration at 5 day [2]: 1.52 ng/mL | concentration at 6 day [2]: 0.501 ng/mL | concentration at 7 day [2]: 0.439 ng/mL | concentration at 8 day [2]: 0.197 ng/mL

CNC(=C[N+](=O)[O-])NCCSCc1ccc(CN(C)C)o1 [Ranitidine]
Subject C, Urine Results ([1]; human, in vivo, 1 day): 0 ng/m | Subject D, Urine Results ([1]; human, in vivo, 1 day): 0 ng/m | Subject C, Urine Results ([1]; human, in vivo, 2 day): 4930 ng/m | Subject D, Urine Results ([1]; human, in vivo, 2 day): 4910 ng/m | Subject C, Urine Results ([1]; human, in vivo, 3 day): 492 ng/m | Subject D, Urine Results ([1]; human, in vivo, 3 day): 300 ng/m | Subject C, Urine Results ([1]; human, in vivo, 4 day): 68.3 ng/m | Subject D, Urine Results ([1]; human, in vivo, 4 day): 51.5 ng/m | Subject C, Urine Results ([1]; human, in vivo, 5 day): 41.9 ng/m | Subject D, Urine Results ([1]; human, in vivo, 5 day): 39.4 ng/m | Subject C, Urine Results ([1]; human, in vivo, 6 day): 39.6 ng/m | Subject D, Urine Results ([1]; human, in vivo, 6 day): 22.6 ng/m | Subject C, Urine Results ([1]; human, in vivo, 7 day): 25.2 ng/m | Subject D, Urine Results ([1]; human, in vivo, 7 day): 14 ng/m | Subject C, Urine Results ([1]; human, in vivo, 8 day): 23.5 ng/m | Subject D, Urine Results ([1]; human, in vivo, 8 day): 12.1 ng/m | concentration at 1 day [1, 4]: 0 ng/mL | concentration at 2 day [1, 4]: 3720 ng/mL | concentration at 3 day [1, 4]: 351 ng/mL | concentration at 4 day [1, 4]: 56.5 ng/mL | concentration at 5 day [1, 4]: 40.7 ng/mL | concentration at 6 day [1, 4]: 34.3 ng/mL | concentration at 7 day [1, 4]: 13.9 ng/mL | concentration at 8 day [1, 4]: 10.4 ng/mL | concentration at 1 day [1, 14]: 0 ng/mL | concentration at 2 day [1, 14]: 801 ng/mL | concentration at 3 day [1, 14]: 156 ng/mL | concentration at 4 day [1, 14]: 63.4 ng/mL | concentration at 5 day [1, 14]: 61.8 ng/mL | concentration at 6 day [1, 14]: 58.5 ng/mL | concentration at 7 day [1, 14]: 11.2 ng/mL | concentration at 8 day [1, 14]: 1.16 ng/mL | concentration at 1 day [1, 5]: 0 ng/mL | concentration at 3 day [1, 5]: 456 ng/mL | concentration at 1 day [2]: 0 ng/mL | concentration at 2 day [2]: 16.8 ng/mL | concentration at 3 day [2]: 1.56 ng/mL | concentration at 4 day [2]: 0.562 ng/mL | concentration at 5 day [2]: 0.366 ng/mL | concentration at 6 day [2]: 0.176 ng/mL | concentration at 7 day [2]: 0.0757 ng/mL | concentration at 8 day [2]: 0.048 ng/mL
